Measurements published in patent US10022374B2, “Certain protein kinase inhibitors” (Shanghai Fochon Pharmaceutical Co., Ltd., priority 2013, dated 2018).

Assays:
A-375 cells = assay: Inhibition of cell proliferation (MTS), A-375 cells; assay type: cell-based; details: Homo sapiens, A-375, 72 h, A-375 cells, 3000 cells/well, 72 h, MTS, absorbance 490 nm; read-out: A375 IC50
Experimental: (§1) MTS testing kit was purchased from Promega. The DMEM, RPMI-1640 and Fetal bovine serum were purchased from Gibco. Dimethyl sulfoxide (DMSO) was purchased from Sigma.
(§2) To investigate whether a compound is able to inhibit the activity of MEK in cells, a mechanism-based assay using A-375 and HT-29 cell was developed. In this assay, inhibition of MEK was detected by the inhibition of A-375 and HT-29 cells proliferation. A-375 and HT-29 cells were cultured in culture flasks to 40-80% confluence respectively in DMEM and RPMI-1640 plus 10% fetal bovine serum. Cells were collected and plated onto 96-well plates at desired cell density (A-375: 3000 cells/well; HT-29: 5000 cells/well). Plates were incubated overnight at 37° C., with 5% CO2 to adhere. Compounds were added to the plates. The final compound concentrations were […], 12.35, 4.12, 1.37, 0.46 and 0.15 nM, respectively. Place plates at 37° C., with 5% CO2 for 72 h. 10 μl MTS were added to each well and incubate the plates for exactly 2 hours. Absorbance was measured at 490 nm. […] was calculated using GraphPad Prism 5.0.

HT-29 cells = assay: Inhibition of cell proliferation (MTS), HT-29 cells; assay type: cell-based; details: Homo sapiens, HT-29, 72 h, HT-29 cells, 5000 cells/well, 72 h, MTS, absorbance 490 nm; read-out: HT29 IC50
Experimental: as §1, §2

SMILES | IC50 (A-375 cells) [nM] | IC50 (HT-29 cells) [nM]
CC(C)C(=O)Nc1cccc(-c2nn(C(C)C)c(=O)c3c(Nc4ccc(I)cc4F)c(F)c(=O)n(C)c23)c1 [Example 11, N-(3-(3-fluoro-4-(2-fluoro-4-iodophenylamino)-6-isopropyl-1-methyl-2,5-dioxo-1,2,5,6-tetrahydropyrido[2,3-d]pyridazin-8-yl)phenyl)isobutyramide] | 198 | 180
Cn1c(=O)c(F)c(Nc2ccc(I)cc2F)c2c(=O)n(C3CC3)nc(-c3cccc(N4CCCC4=O)c3)c21 [Example 53, 6-cyclopropyl-3-fluoro-4-((2-fluoro-4-iodophenyl)amino)-1-methyl-8-(3-(2-oxopyrrolidin-1-yl)phenyl)pyrido[2,3-d]pyridazine-2,5(1H,6H)-dione] | 7.8 | 19.1
Cn1c(=O)c(F)c(Nc2ccc(I)cc2F)c2c(=O)n(C3CC3)nc(-c3cccc(N4CCCS4(=O)=O)c3)c21 [Example 55, 6-cyclopropyl-8-(3-(1,1-dioxidoisothiazolidin-2-yl)phenyl)-3-fluoro-4-((2-fluoro-4-iodophenyl)amino)-1-methylpyrido[2,3-d]pyridazine-2,5(1H,6H)-dione] | 8.8 | 18.7
CCCn1nc(-c2cccc(NS(=O)(=O)C3CC3)c2)c2c(c(Nc3ccc(I)cc3F)c(F)c(=O)n2C)c1=O [Example 17, N-(3-(3-fluoro-4-(2-fluoro-4-iodophenylamino)-1-methyl-2,5-dioxo-6-propyl-1,2,5,6-tetrahydropyrido[2,3-d]pyridazin-8-yl)phenyl)cyclopropanesulfonamide] | 12.8 | 21.6
C=CCn1nc(-c2cccc(NS(C)(=O)=O)c2)c2c(c(Nc3ccc(I)cc3F)c(F)c(=O)n2C)c1=O [Example 31, N-(3-(6-allyl-3-fluoro-4-(2-fluoro-4-iodophenylamino)-1-methyl-2,5-dioxo-1,2,5,6-tetrahydropyrido[2,3-d]pyridazin-8-yl)phenyl)methanesulfonamide] | 1.1 | 7.4
COCCn1nc(-c2cccc(NS(=O)(=O)C3CC3)c2)c2c(c(Nc3ccc(I)cc3F)c(F)c(=O)n2C)c1=O [Example 18, N-(3-(3-fluoro-4-(2-fluoro-4-iodophenylamino)-6-(2-methoxyethyl)-1-methyl-2,5-dioxo-1,2,5,6-tetrahydropyrido[2,3-d]pyridazin-8-yl)phenyl)cyclopropanesulfonamide] | 30.2 | 23.6
CC(C)C(=O)Nc1cccc(-c2nn(C3CC3)c(=O)c3c(Nc4ccc(I)cc4F)c(F)c(=O)n(C)c23)c1 [Example 3, N-(3-(6-cyclopropyl-3-fluoro-4-(2-fluoro-4-iodophenylamino)-1-methyl-2,5-dioxo-1,2,5,6-tetrahydropyrido[2,3-d]pyridazin-8-yl)phenyl)isobutyramide] | 15.3 | 41.4
Cn1c(=O)c(F)c(Nc2ccc(I)cc2F)c2c(=O)n(CC(F)F)nc(-c3cccc(NS(=O)(=O)C4CC4)c3)c21 [Example 20, N-(3-(6-(2,2-difluoroethyl)-3-fluoro-4-(2-fluoro-4-iodophenylamino)-1-methyl-2,5-dioxo-1,2,5,6-tetrahydropyrido[2,3-d]pyridazin-8-yl)phenyl)cyclopropanesulfonamide] | 6.4 | 7.7

The next lines start with the values.

IC50 (A-375 cells) [nM] | IC50 (HT-29 cells) [nM] | SMILES
12.6 | 7.2 | C=CCn1nc(-c2cccc(NS(=O)(=O)C(C)C)c2)c2c(c(Nc3ccc(I)cc3F)c(F)c(=O)n2C)c1=O [Example 33, N-(3-(6-allyl-3-fluoro-4-(2-fluoro-4-iodophenylamino)-1-methyl-2,5-dioxo-1,2,5,6-tetrahydropyrido[2,3-d]pyridazin-8-yl)phenyl)propane-2-sulfonamide]
1.6 | 6.4 | C=CCn1nc(-c2cccc(NC(C)=O)c2)c2c(c(Nc3ccc(I)cc3F)c(F)c(=O)n2C)c1=O [Example 28, N-(3-(6-allyl-3-fluoro-4-(2-fluoro-4-iodophenylamino)-1-methyl-2,5-dioxo-1,2,5,6-tetrahydropyrido[2,3-d]pyridazin-8-yl)phenyl)acetamide]
80.7 | 76.7 | C=CCn1nc(-c2cccc(NC(=O)C3CC3)c2)c2c(c(Nc3ccc(I)cc3F)c(F)c(=O)n2C)c1=O [Example 30, N-(3-(6-allyl-3-fluoro-4-(2-fluoro-4-iodophenylamino)-1-methyl-2,5-dioxo-1,2,5,6-tetrahydropyrido[2,3-d]pyridazin-8-yl)phenyl)cyclopropanecarboxamide]
32.4 | 42.7 | C=CCn1nc(-c2cccc(NS(C)(=O)=O)c2)c2c(c(Nc3ccc(Br)cc3F)c(F)c(=O)n2C)c1=O [Example 37, N-(3-(6-allyl-4-(4-bromo-2-fluorophenylamino)-3-fluoro-1-methyl-2,5-dioxo-1,2,5,6-tetrahydropyrido[2,3-d]pyridazin-8-yl)phenyl)methanesulfonamide]
341 | 427 | C=CCn1nc(-c2cccc(NC(C)=O)c2)c2c(c(Nc3ccc(Br)cc3F)c(F)c(=O)n2C)c1=O [Example 36, N-(3-(6-allyl-4-(4-bromo-2-fluorophenylamino)-3-fluoro-1-methyl-2,5-dioxo-1,2,5,6-tetrahydropyrido[2,3-d]pyridazin-8-yl)phenyl)acetamide]
